Source: a melting point compilation (Tetko et al.; mined from patent text by program, amines drawn as free bases though some values may be those of a salt)

| SMILES | melting point [°C] |
| --- | --- |
| CC1=C(S(C)(=O)=O)C(c2ccccc2[N+](=O)[O-])C(C(=O)OC2CCCC2)=C(N=CN(C)C)N1 (stereo unspecified) | 175 |
| Cc1ccc(N2CCN(CCC3CN(C)C(=O)O3)CC2)cc1 (stereo unspecified) | 96 to 97 |
| CC(=O)NC[C@H]1CN(c2ccc(C(=O)c3cnc4c(OCc5ccccc5)cccn34)cc2)C(=O)O1 | 193 to 195 |
| NCCOc1cccc2c1ccn2S(=O)(=O)c1ccccc1 | 71 to 73 |
| CC12CCC(=O)NC1CCc1cc(-c3cccc([N+](=O)[O-])c3)ccc12 (single isomer, unassigned; (+)) | 223 to 225 |
| COc1ccc2cc([C@H](C)C(=O)OCC(CO)(CO)[N+](=O)[O-])ccc2c1 | 124 to 126 |
| NC(CC1c2ccccc2Sc2ccccc21)(C(=O)O)c1ccc(C(=O)O)cc1 (stereo unspecified) | 251 |
| Oc1cnc2c(O)cccc2c1 | 139 to 141 |
| Clc1ccc2nc(CN3CCN(c4ccccc4)CC3)[nH]c2c1 | 198 to 201 |
| COc1ccc(C(=O)NNc2ccc(NC(=S)Nc3ccccc3)cc2)cc1 | 178 |
| CC(=O)N1CC(C)C(=O)N(C(C)=O)C1=O (stereo unspecified) | 130 to 131 |
| C=C1c2ccccc2CC(=O)c2ccccc21 | 84 to 86 |
| Nc1nc2cc(Cl)c(Cl)cc2[nH]1 | 260 to 262 |
| COC(=O)/C(=C/c1ccc2[nH]ccc2c1)N=[N+]=[N-] | 130 to 133 |
| O=C(O)Cc1cccc(Oc2ccccc2F)c1[N+](=O)[O-] | 144 to 146 |
| Cc1ccsc1C=Nc1cc([N+](=O)[O-])ccc1O | 169 to 171 |
| CN1CCC(=C2c3ccccc3C=Cc3ccc(I)cc32)CC1 | 166 to 170 |
| O=S(=O)(c1ccc(Cl)cc1)C1(c2cccnc2Cl)CCCCC1 | 129 to 131 |
| COc1ccc(C2CCS(=O)(=O)C2)cc1OC1CCCC1 (stereo unspecified) | 89 to 90 |
| O=C(NC1C2CC3CC(C2)CC1C3)C1CCCCN1Cc1ccccn1 (stereo unspecified) | 126 to 127 |
| O=C(C=Cc1cc(O)c(O)c([N+](=O)[O-])c1)c1ccccc1 | 192 to 195 |
| CCOC(=O)C(C(N)=O)c1cc(OC)c(OC)c(OC)c1 (stereo unspecified) | 93 |
| O=C(O)c1cc2c(C(F)(F)F)c(F)ccc2[nH]1 | 204 to 210 |
| O=[N+]([O-])c1ccc(-c2nc(-c3ccc([N+](=O)[O-])cc3)c(-c3ccc([N+](=O)[O-])cc3)[nH]2)cc1 | 320 to 322 |
| O=C1Nc2ccccc2C1CCCCN1CCN(c2ccc(F)cc2)CC1 (stereo unspecified) | 113 to 115 |
| NS(=O)(=O)c1cc(C(=O)NNc2ccccc2)ccc1Cl | 189 to 190 |
| CC(=O)OC1CC(CO)OC1n1ccc(=O)[nH]c1=O (stereo unspecified) | 148 to 149 |
| COc1ccc2c(c1Br)CCC1C(=O)NC(=O)C21 (stereo unspecified) | 243 to 245 |

| SMILES | melting point [°C] |
| --- | --- |
| O=C(Oc1ccc2c(c1Cl)Sc1ccccc1N2)c1ccccc1 | 203 |
| Cc1ccc(S(=O)(=O)N2C(C3=NOC(C)N3)CCC2c2ccc(F)cc2)cc1 (stereo unspecified) | 68 |
| COC(=O)C(C(=O)OC)c1cccc2c1NC(=O)C2 | 161 to 162 |
| CC1(C(F)(F)F)NC(c2ncccc2C(=O)O)=NC1=O (stereo unspecified) | 180 to 184 |
| CCOC(=O)C1=C2NC=C(C(N)=O)C(=O)N2C(C)CC1 (stereo unspecified) | 251 |
| O=c1c(Cl)nc2ccc(C(F)(F)F)cc2n1OCc1ccccc1 | 148 to 150 |
| CC1CCN(c2ccccc2C(=O)c2ccccc2)CC1 | 82 |
| CS(=O)(=O)c1ccc(C(Br)C(=O)c2ccc(F)cc2)cc1 (stereo unspecified) | 140 to 141 |
| O=C1CCC(c2ccccc2)(c2ccccc2)[C@@H]2CN(C(=O)Cc3cccs3)C[C@H]12 (racemic) | 206 |
| CN1C(=O)C(C)(C)N=C(c2ccccc2Cl)c2cc([N+](=O)[O-])ccc21 | 177 to 178 |
| O=C(O)C1CCC(c2cc3cccnc3c(=O)[nH]2)CC1 (stereo unspecified) | > 270 |
| CC(C)(O)CCCCCc1ccc(C=Cc2ccc(CO)c(CO)c2)cc1 | 112 to 114 |
| CC(C)(/C=C\F)C(=O)Nc1ccc(Br)cc1 | 87 to 90 |
| O=C1CCC(c2ccc(C3=NNC(=O)CC3)cc2)=NN1 | > 250 |
| O=C(O)C1CCc2c(c3ccccc3n2C(=O)c2cccc(I)c2)C1 (stereo unspecified) | 210 to 212 |
| CCOC(=O)N1CCC2(CC1)OC(c1ccccc1)c1ccccc12 (stereo unspecified) | 115 to 119 |
| CN1C(=O)CC[C@]2(C)c3ccc(-c4cccc(C=O)c4)cc3CC[C@@H]12 | 163 |
| COCCONS(=O)(=O)c1ccccc1 | 110 to 112 |
| COC1=C(OC)C(=O)C(CN2CCN(C(=S)SC)CC2)=C(C)C1=O | 115 to 116 |
| N#Cc1cc(C2=NOC(c3cc(Cl)cc(Cl)c3)(C(F)(F)F)C2)ccc1F (stereo unspecified) | 136 to 139 |
| N[C@@H](Cc1cccc(Oc2ccc(Oc3ccc(O)cc3)cc2)c1)C(=O)O | 67 to 71 |
| CC(=O)c1ccc(Oc2ccc(Cl)c3ccccc23)cc1 | 95 to 99 |
| Nc1ccc(C(=O)N2CCCCc3sccc32)c(Cl)c1 | 176 to 179 |
| Cc1cc(C)c(C=NNC(=O)c2ccc(O)cc2)[nH]1 | 261 |
| CC(C)(C)OC(=O)N(Cc1ccc(C(=O)O)cc1)c1ccc(C2CCCCC2)cc1 | 192 to 194 |
| Nc1cc(F)nc(F)c1F | 94 to 96 |
| O=C(Nc1cccc2c1C(=O)N(CC(=O)N1CCN(c3ccncc3)CC1)C2=O)c1ccc(Cl)s1 | 207 |

Results, then the compound that gave them:

| melting point [°C] | SMILES |
| --- | --- |
| 139 to 141 | CCOC(=O)C(=O)c1cn(CC)c2cc(-c3ccc(C(F)(F)F)cc3)ccc12 |
| 132 | CCCCOc1ccc(-n2cc(C(=O)OCC)cn2)cc1C#N |
| 92 to 93 | COC(=O)c1ccc(C#CCc2cccc3c2OCCC3(C)C)cc1O |
| 81 to 85 | COC(=O)c1ccc(OCCNC(=O)C2Cc3ccccc3N2S(=O)(=O)c2ccc(-c3ccc(F)cc3)cc2)c(C)c1 (stereo unspecified) |
| 63 | CCOC(=O)CCc1c(C)nc(SCc2ccc(OC)cc2)n1C |
| 94 to 95 | CCN(C)c1nsc(N)c1C#N |
| 214 to 215 | Cc1oc(C=Cc2cccc(Cl)c2)nc1CC(=O)O |
| 191 to 192 | N#Cc1cc(Cl)ccc1N1CCN(Cc2cn3cc(Cl)ccc3n2)CC1 |
| 98 to 101 | CC(C)(C)c1noc(-c2cnc(Cl)c(Cl)c2)n1 |
| 164 to 165 | CC1(O)OC(=O)C(c2c(F)cc(F)cc2F)=C1c1ccc2ccccc2c1 (stereo unspecified) |
| 191 to 192 | O=C1NC(=S)SC1Cc1cccc2c1CCC(=O)N2Cc1ccc(Br)cc1 (stereo unspecified) |
| 152 to 154 | COc1ccc2c(c1)Nc1cccc(SC)c1S2 |
| 221 to 228 | CNC(=O)c1ccc(C=CC(=O)NCC(=O)N(C)c2ccc(Cl)c(COc3cccc4ccc(C)nc34)c2)cc1 |
| 85 to 90 | COc1cc2ncc(OC3CCC(OC)CC3)nc2cc1OC (stereo unspecified) |
| 119 to 121 | CNC(=S)CC(=S)N(c1c(C)cccc1C)C(C)C(=O)OC (stereo unspecified) |
| 173 | CCn1cc(CN(C(=O)C2CCCc3c(O)cccc32)c2ccc(C(C)C)nc2)cn1 (stereo unspecified) |
| 102 to 105 | Cc1cccc(-c2[nH]c(C(C)C)nc2-c2ccc(F)c(-c3ccc(S(C)(=O)=O)nc3)c2)n1 |
| 104 to 106 | CCO[C@@H]1C(C(=O)Nc2ccc(Cl)cc2)=C(C)OC(OCC)(OCC)[C@H]1C (relative stereo) |
| 77.5 to 78.5 | CCOC(=O)C(=CNc1ccc(F)c(SCC)n1)C(=O)OCC |
| 74.5 to 77 | CCCn1c(=O)c2ccc(NC(=O)CC3CCCC3)cc2n1Cc1ccc(C(=O)OC)cc1OC |
| 199 to 201 | CCN(CC)c1nc(-c2ccc3c(c2)OCO3)nc2sc(C#N)c(C)c12 |
| 212 to 214 | C=CCc1ccc(OCC2CCCO2)c2c(=O)cc(C(N)=O)oc12 (stereo unspecified) |
| 151 to 152 | COc1ccccc1CN1CCN(CCCOc2ccc3c(C)cc(=O)[nH]c3c2)CC1 |

| melting point [°C] | SMILES |
| --- | --- |
| 162 to 165 | Cc1nc(Nc2ccccc2)sc1C(=O)c1ccc(Cl)c([N+](=O)[O-])c1 |
| 71 to 73 | Cc1cc(C#N)cc(C)c1OCCCc1cncs1 |
| 221 | O=c1ccc2nc3ccccc3sc-2c1Cl |
| 98 to 101 | CC(C)n1cnc2c(NCc3ccccc3)nc(NCCCO)nc21 |
| 189 to 190 | Nc1nc2ccccc2c2c1ncn2CCCCNC(=O)c1cccnc1 |
| 179 to 181 | CCOC(=O)c1cnn(-c2cc(Cl)cc(Cl)c2)c1S(C)(=O)=O |
| 78 to 81 | CCOC(=O)c1cnn2c1c(OCCCN(C)C)nc1ccccc12 |
| 70 to 73 | CCCCCCCCCCCc1ccc(F)c(-c2nc(-c3c(F)cccc3F)nn2C)c1 |
| 236 to 238 | CCn1ncc2c(NCC3CCCC(O)C3)c3cc([N+](=O)[O-])ccc3nc21 (stereo unspecified) |
| > 280 | Cc1cccc(C(=O)c2[nH]c3cc(Cl)ccc3c2NC(N)=O)c1 |
| 77 to 78 | CNC(=O)N(C)c1cc(C)on1 |
| 191 to 193 | N#Cc1ccc(-c2ccc(C(=O)CCC(=O)O)cc2)cc1 |
| 171 to 173 | CN(C)S(=O)(=O)c1cc(-c2csc(=Nc3ccc4c(c3)OCO4)n2C)ccc1Cl |
| > 300 | Oc1ccc(O)c2[nH]c(-c3ccc(Cl)cc3)nc12 |
| 162 to 164 | Cc1nc(N2CCN(Cc3ccc(F)cc3)C2=O)sc1C(=O)N(C)C |
| 210 to 211 | CCc1cc2c(cc1Oc1ccc(C(=O)O)cc1C)C(C)(C)CCC2(C)C |
| 149 to 152 | COc1ccc(Cn2c(C)c(Br)c3cnnc(OCc4ccccc4)c32)cc1 |
| 97 to 105 | CCN(CC)C(=O)CC(=O)CC(=O)/C=C/c1c(C2CC2)nc2ccccc2c1-c1ccc(F)cc1 |
| 55 to 63 | CC1(C)CCSc2c(CC#Cc3ccc(C=O)cc3)cccc21 |
| 188 to 190 | COC(=O)C(Cc1ccccc1)Oc1ccc2cc(-c3cnc(-c4cn(Cc5ccccc5)c5ccccc45)o3)ccc2c1 (stereo unspecified) |
| 104 to 106 | CN1C(=O)C(c2cccc(-c3cccnc3F)c2)(c2cnn(CC(F)(F)F)c2)N=C1N (stereo unspecified) |
| 117 to 120 | COc1ccc(C2=CCOCC2)cc1[N+](=O)[O-] |
| 193 to 194 | CC(=O)Oc1ccc2nc(S(N)(=O)=O)sc2c1 |
